Patent US20130243732A1, “ABROGATING PROINFLAMMATORY CYTOKINE PRODUCTION DURING ONCOLYTIC REOVIRUS THERAPY” ([…] INC., priority 2008, published 2013)

Key:
[1] = tested on: subcutaneous B16.F10 tumors in C57Bl/6 mice or K1735 tumors in C3H mice; test: In vivo tumor growth and survival, i.t. RV and i.p. CP alone or in combination; set-up: species or system mouse; conditions: treated days 1 and 4, tumor model not stated
Method: C57Bl/6 (FIGS. 1A and 1C) and C3H (FIGS. 1B and 1D) mice bearing subcutaneous B16.F10 and K1735 tumors, respectively, were treated on days 1 and 4 with either reovirus alone via intratumoral (i.t.) injection (squares), cisplatin alone via intraperitoneal (i.p.) administration (triangles), or reovirus and cisplatin in combination (circles). Control treated mice (diamonds) received PBS. Tumors were measured on the days indicated and tumor volume expressed as tumor volume relative to volume at commencement of treatment (FIGS. 1A and 1B). Mice were euthanized when tumors exceeded 15 mm in any one dimension. Survival is expressed as Kaplan-Myer plots (FIGS. 1C and 1D).
(§1) For in vivo evaluation, subcutaneous B16.F10 tumors in C57Bl/6 mice or K1735 tumors in C3H mice were treated with intratumoral (i.t.) RV and intraperitoneal (i.p.) CP either alone or in combination. Tumor volume was estimated thrice weekly. […] Tumors were measured on the days indicated and tumor volume expressed as tumor volume relative to volume at commencement of treatment (FIGS. 1A and 1B). […] Survival is expressed as Kaplan-Myer plots (FIGS. 1C and 1D). […] In contrast live virus was detected in only 50% of tumors from combination treated mice but in the liver of 4/6 mice.

[2] = tested on: neutralizing anti-reovirus antibody (NARA); test: Neutralising anti-reovirus antibody (NARA) response in serum; assay type: in vivo, mouse; conditions: CP used in combination with RV
Method: FIG. 2 is a graph showing the neutralizing anti-reovirus antibody (NARA) response after no treatment (control) or treatment with reovirus, cisplatin or the combination of reovirus and cisplatin.
For in vivo evaluation, subcutaneous B16.F10 tumors in C57Bl/6 mice or K1735 tumors in C3H mice were treated with intratumoral (i.t.) RV and intraperitoneal (i.p.) CP either alone or in combination. Tumor volume was estimated thrice weekly. Tumors and organs were harvested post-treatment for viral retrieval and histology; serum samples were tested for cytokine production and induction of neutralising anti-reovirus antibody (NARA). […] C57Bl/6 (FIGS. 1A and 1C) and C3H (FIGS. 1B and 1D) mice bearing subcutaneous B16.F10 and K1735 tumors respectively were treated on days 1 and 4 with either reovirus alone i.t. (squares), cisplatin alone i.p. (triangles), or reovirus and cisplatin in combination (circles). Control treated mice (diamonds) received PBS. Tumors were measured on the days indicated and tumor volume expressed as tumor volume relative to volume at commencement of treatment (FIGS. 1A and 1B). Mice were euthanized when tumors exceeded 15 mm in any one dimension. Survival is expressed as Kaplan-Myer plots (FIGS. 1C and 1D). […] In contrast live virus was detected in only 50% of tumors from combination treated mice but in the liver of 4/6 mice.

[3] = tested on: proinflammatory cytokines (IL-1I, IL-3, IL-6, IL-12, IL-17, MIP-1I, RANTES); test: Pro-inflammatory cytokine production in serum; assay type: in vivo, mouse; conditions: CP used in combination with RV
Method: FIGS. 3A, 3B, 3C, 3D, 3E, 3F, and 3G are graphs showing pro-inflammatory cytokine response is abrogated by cisplatin. The response of IL-1I (FIG. 3A), IL-3 (FIG. 3B), IL-6 (FIG. 3C), IL-12 (FIG. 3D), IL-17 (FIG. 3E), MIP-1I (FIG. 3F) and RANTES (FIG. 3G) were measured after no treatment (control) or treatment with reovirus, cisplatin or the combination of reovirus and cisplatin.
as §1, with “weekly. Tumors and organs were harvested post-treatment for viral retrieval and histology; serum samples were tested for cytokine production and induction of neutralising anti-reovirus antibody (NARA).” for “weekly.”

Q: With N.N.[Cl][Pt][Cl] [CP, cisplatin] as the molecule, how does the “Mean relative tumor volumes ±SD” value ([1]; day 12, volume relative to commencement of treatment) read?
A: The value was 9.87±2.80.

Q: What about the Median survival ([1]; euthanized when tumors exceeded 15 mm) of the same molecule?
A: Its Median survival is 8 days.

Q: What about the “neutralizing anti-reovirus antibody (NARA) response to RV” value [2] of the same molecule?
A: Its value is “did not affect”.

Q: What about the “production of proinflammatory cytokines to RV” value [3] of the same molecule?
A: Its value is “marked attenuation”.
